From patent US20180042231A1, “Systems and Methods for the Continuous On-Site Production of Peroxycarboxcylic Acid Solutions” (Eltron Water Systems, LLC, priority 2016, published 2018)

Key:
[1] = Degradation (self-decay) of PAA solution over time; format: physicochemical; conditions: for degradation rate of non-equilibrium PAA: 2% concentration
From the text: Sometimes it is desirable to remove the very strong odor of the final equilibrium PAA product, such as when it is used indoors. Anti-microbial efficacy is roughly the same whether the PAA is in an acidic or alkaline state. The two most significant differences are: 1) alkaline PAA has no odor and 2) alkaline PAA self-degrades very rapidly when the pH is above 8, usually at 5-10% per hour. In situations where the PAA is to be used within minutes or hours of when it is made alkaline, the addition of an alkali earth metal in solution with water can be used alone or with more water to both dilute the PAA and raise its pH to any desired level, eliminating its odor. At this point other materials may be added to the alkaline PAA such as detergents, fragrance additives and even foaming agents.
The system of the present invention is designed such that the PAA is produced in a unique manner which differs substantially from prior art processes, the end product being inherently not at equilibrium. At 2% concentration, it degrades at about 6% per day if the pH is below 7 (acidic) and at 5-10% per hour when the pH is above 7. Use of a stabilizer will not halt that decay. Accordingly, the system herein disclosed is designed to generate PAA to be used within minutes or hours of when it is made, thereby eliminating the need for a stabilizer used by every other PAA manufacturer in the world.

[2] = Dissolution of triacetin in water; format: physicochemical; conditions: room temperature
From the text: A second method involves pre-dissolving traicetin in water outside the generator using time and mixing to eliminate the strands and globules. This approach requires a significant amount of extra water to be supplied to the generator, since at room temperature, the maximum amount of triacetin that can be dissolved is only approximately 4%.

Row | SMILES | degradation rate of non-equilibrium PAA ([1]; pH above 7) | degradation rate of non-equilibrium PAA ([1]; pH below 7 (acidic)) | self-degradation rate of alkaline PAA ([1]; equilibrium PAA made alkaline, pH above 8) | maximum amount of triacetin that can be dissolved in water [2]
1 | CC(=O)OO [PAA, peracetic acid] | 5-10 % per hour | about 6 % per day | 5-10 % per hour | 
2 | CC(=O)OCC(COC(C)=O)OC(C)=O [triacetin, 1,2,3-triacetoxypropane] |  |  |  | approximately 4%
